From EP4782450A1, “NOVEL SKELETAL DERIVATIVE EFFECTIVE FOR HER2 MUTATION, AND PHARMACEUTICAL COMPOSITION COMPRISING SAME” (Hanmi Pharm. Co., Ltd., priority 2023, dated 2025) come the findings set out here.

For one experiment, the system named is Ba/F3 HER2 A775insYVMA. The experiment in a line: Growth inhibition of Ba/F3 cells engineered to overexpress HER2 A775_G776insYVMA (CellTiter-Glo luminescence). The settings on record: Mus musculus, BaF3, 72 hours, concentrations 1000 to 0.32 nM, read-out: Ba/F3 HER2^YVMA GI50 class. The class given is cell-based. As to the method:
(§1) Experimental Example: Growth inhibition of Ba/F3 HER2 A775insYVMA and wild-type Ba/F3 cells
(§2) In this Experimental Example, the compounds obtained in Examples 1 to 92 were evaluated for their ability to inhibit growth of cells harboring either the HER2 A775insYVMA mutation or wild-type EGFR. For this purpose, Ba/F3 cells (ATCC, USA) were genetically engineered to overexpress either HER2 A775_G776insYVMA or wild-type EGFR, and the growth of these engineered Ba/F3 cells were monitored in the presence of the compounds described in the Examples to evaluate their effects on growth inhibition.
(§3) Specifically, culture flasks of the engineered Ba/F3 cells suspended in RPMI 1640 medium supplemented with 10% fetal bovine serum (FBS) and 1% penicillin/streptomycin (Gibco BRL, USA) were placed in a cell incubator and incubated at 37°C and 5% CO2 level to allow them to reach a stable logarithmic growth phase. The cells were then harvested by centrifugation to remove the old media and placed into a 96-well plate by dividing them into 100 µL aliquots per well at a dilution of 1×10^5 cells/mL in fresh media. Each of the compounds prepared in the preceding Examples were dissolved in 99.5% (cell culture grade) dimethylsulfoxide (DMSO) to prepare a stock solution of 10 mM concentration, which were serially diluted in the culture medium to final concentrations of 1000, 200, 40, 8, 1.6 and 0.32 nM for HER2 A775insYVMA Ba/F3 cells and concentrations of 10000, 5000, 1000, 200, 40 and 8 nM for wild-type EGFR overexpressing Ba/F3 cells.
(§4) To each aliquot of cells in the 96-well plate, a 50 µL test solution comprising one of the compounds was added to result in each well a 150 µL volume of cells with a compound in a final concentration ranging from 10 µM to 0.32 nM. The Ba/F3 cells treated with the test solution were incubated for 72 hours at 37°C and 5% CO2 level and underwent a 30-minute acclimation by placing the 96-well plate carrying the cells in ambient temperature. Thereafter, to each well was added 50 µL CellTiter-Glo® Luminescent Cell Assay Reagent (CTG, Promega, USA). After allowing 10 minutes to stabilize the signal, luminescence intensity was measured using a microplate reader. The half-maximal growth inhibition concentration (GI50) was calculated from the luminescence readout of the test compounds with the difference between the initial and final cell densities for the well untreated with a compound set at 100% growth. Nonlinear regression analysis based on log[inhibitor] vs. normalized response mode of the Graph Prism software was used for calculating GI50 for each compound, which are summarized in Table 6. The calculated GI50 values are classified in Table 6 into four categories: A for GI50 values less than 100 nM, B for GI50 values more than 100 nM but less than 1,000 nM, C for GI50 values more than 1,000 nM but less than 5,000 nM, and D for GI50 values of more than 5,000 nM.
On the technique in general: In ATP-based viability assays light output follows the ATP content of the culture.

Experiment [1] relates to wild-type EGFR overexpressing Ba/F3 cells. Nature of the experiment: Growth inhibition of Ba/F3 cells engineered to overexpress wild-type EGFR (CellTiter-Glo luminescence). The format is cell-based. The conditions noted are these: Mus musculus, BaF3, 72 hours, concentrations 10000 to 8 nM, read-out: Ba/F3 EGFR^WT GI50 class. As to the method: as §1, §2, §3, §4

Turning to `C=CC(=O)NC/C=C/c1ccc2ncnc(Nc3ccc(Oc4cnc5c(c4)ncn5C)c(C)c3)c2n1` [Example 34, (E)-N-(3-(4-((3-methyl-4-((3-methyl-3H-imidazo[4,5-b]pyridin-6-yl)oxy)phenyl)amino)pyrido[3,2-d]pyrimidin-6-yl)allyl)acrylamide], the GI50 was less than 100 nM in the experiment with Ba/F3 HER2 A775insYVMA and greater than 5 µM in experiment [1].
Regarding `C=CC(=O)NC/C=C/c1ccc2ncnc(Nc3ccc(Oc4ccc5c(c4)ncn5C)c(C)c3F)c2n1` [Example 35, (E)-N-(3-(4-((2-fluoro-3-methyl-4-((1-methyl-1H-benzo[d]imidazol-5-yl)oxy)phenyl)amino)pyrido[3,2-d]pyrimidin-6-yl)allyl)acrylamide], the GI50 with Ba/F3 HER2 A775insYVMA is less than 100 nM; in experiment [1], greater than 5 µM.
`C=CC(=O)NC/C=C/c1ccc2ncnc(Nc3ccc(Oc4ccc5c(c4)ncn5C)c(C)c3Cl)c2n1` [Example 36, (E)-N-(3-(4-((2-chloro-3-methyl-4-((1-methyl-1H-benzo[d]imidazol-5-yl)oxy)phenyl)amino)pyrido[3,2-d]pyrimidin-6-yl)allyl)acrylamide]: the results for the GI50 (in the experiment on Ba/F3 HER2 A775insYVMA; in experiment [1]) were less than 100 nM and greater than 5 µM, respectively.
For the compound `C=CC(=O)NC/C=C/c1ccc2ncnc(Nc3ccc(Oc4ccn5nccc5c4)c(C)c3)c2n1` [Example 37, (E)-N-(3-(4-((3-methyl-4-(pyrazolo[1,5-a]pyridin-5-yloxy)phenyl)amino)pyrido[3,2-d]pyrimidin-6-yl)allyl)acrylamide], the values for the GI50 (in the experiment with Ba/F3 HER2 A775insYVMA; in experiment [1]) were 100 to 1000 nM and less than 0.1 µM, respectively.
Taken in the same sequence, the figures for `C=CC(=O)NC/C=C/c1ccc2ncnc(Nc3ccc(Oc4ccn5ncnc5c4)c(C)c3)c2n1` [Example 38, (E)-N-(3-(4-((4-([1,2,4]triazolo[1,5-a]pyridin-7-yloxy)-3-methylphenyl)amino)pyrido[3,2-d]pyrimidin-6-yl)allyl)acrylamide] were less than 100 nM and 0.1 to 1 µM.
With `C=CC(=O)NC/C=C/c1ccc2ncnc(Nc3ccc(Oc4ccn5ccnc5c4)c(C)c3)c2n1` [Example 39, (E)-N-(3-(4-((4-(imidazo[1,2-a]pyridin-7-yloxy)-3-methylphenyl)amino)pyrido[3,2-d]pyrimidin-6-yl)allyl)acrylamide], the GI50 in the experiment on Ba/F3 HER2 A775insYVMA is less than 100 nM; in experiment [1], 0.1 to 1 µM.
As for `Cc1cc(Nc2ncnc3ccc(/C=C/CNC(=O)/C=C/CN(C)C)nc23)ccc1Oc1ccc2c(c1)ncn2C` [Example 40, (E)-4-(dimethylamino)-N-((E)-3-(4-((3-methyl-4-((1-methyl-1H-benzo[d]imidazol-5-yl)oxy)phenyl)amino)pyrido[3,2-d]pyrimidin-6-yl)allyl)but-2-enamide], the values for the GI50 (with Ba/F3 HER2 A775insYVMA; in experiment [1]) were less than 100 nM and greater than 5 µM, respectively.
As to `Cc1c(Oc2ccc3c(c2)ncn3C)ccc(Nc2ncnc3ccc(/C=C/CNC(=O)/C=C/CN(C)C)nc23)c1F` [Example 41, (E)-4-(dimethylamino)-N-((E)-3-(4-((2-fluoro-3-methyl-4-((1-methyl-1H-benzo[d]imidazol-5-yl)oxy)phenyl)amino)pyrido[3,2-d]pyrimidin-6-yl)allyl)but-2-enamide], the GI50 was less than 100 nM with Ba/F3 HER2 A775insYVMA and 1 to 5 µM in experiment [1].
Taken in the same sequence, the figures for `C=CC(=O)N(C)C/C=C/c1ccc2ncnc(Nc3ccc(Oc4ccc5c(c4)ncn5C)c(C)c3F)c2n1` [Example 42, (E)-N-(3-(4-((2-fluoro-3-methyl-4-((1-methyl-1H-benzo[d]imidazol-5-yl)oxy)phenyl)amino)pyrido[3,2-d]pyrimidin-6-yl)allyl)-N-methylacrylamide] were less than 100 nM and 1 to 5 µM.
As for `C=CC(=O)N(C)C/C=C/c1ccc2ncnc(Nc3ccc(Oc4cnc5c(c4)ncn5C)c(C)c3)c2n1` [Example 43, (E)-N-methyl-N-(3-(4-((3-methyl-4-((3-methyl-3H-imidazo[4,5-b]pyridin-6-yl)oxy)phenyl)amino)pyrido[3,2-d]pyrimidin-6-yl)allyl)acrylamide], the GI50 in the experiment with Ba/F3 HER2 A775insYVMA is less than 100 nM; in experiment [1] it was 1 to 5 µM.
Take `C=CC(=O)N1CC(/C=C/c2ccc3ncnc(Nc4ccc(Oc5cnc6c(c5)ncn6C)c(C)c4)c3n2)C1` [Example 44]: the GI50 was less than 100 nM with Ba/F3 HER2 A775insYVMA and greater than 5 µM in experiment [1].
For the compound `C=CC(=O)N1CC(/C=C/c2ccc3ncnc(Nc4cc(C)c(Oc5ccc6c(c5)ncn6C)cc4F)c3n2)C1` [Example 45], the values for the GI50 (with Ba/F3 HER2 A775insYVMA; in experiment [1]) were less than 100 nM and greater than 5 µM, respectively.
Regarding `C=CC(=O)N1CC(/C=C/c2ccc3ncnc(Nc4ccc(Oc5ccc6c(c5)ncn6C)c(C)c4F)c3n2)C1` [Example 46], the figures for the GI50 (with Ba/F3 HER2 A775insYVMA; in experiment [1]) were less than 100 nM and 1 to 5 µM, respectively.
With `C=CC(=O)N1CC(/C=C/c2ccc3ncnc(Nc4ccc(Oc5cnc6c(c5)ncn6C)c(C)c4F)c3n2)C1` [Example 47], the GI50 with Ba/F3 HER2 A775insYVMA was less than 100 nM; in experiment [1], 1 to 5 µM.
With `C=CC(=O)N1CC(/C=C/c2ccc3ncnc(Nc4ccc(Oc5ccc6cn(C)nc6c5)c(C)c4)c3n2)C1` [Example 48, (E)-1-(3-(2-(4-((3-methyl-4-((2-methyl-2H-indazol-6-yl)oxy)phenyl)amino)pyrido[3,2-d]pyrimidin-6-yl)vinyl)azetidin-1-yl)prop-2-en-1-one], the GI50 is 100 to 1000 nM in the experiment with Ba/F3 HER2 A775insYVMA and greater than 5 µM in experiment [1].
For the compound `C=CC(=O)N(CC)C/C=C/c1ccc2ncnc(Nc3ccc(Oc4ccc5c(c4)ncn5C)c(C)c3)c2n1` [Example 49, (E)-N-ethyl-N-(3-(4-((3-methyl-4-((1-methyl-1H-benzo[d]imidazol-5-yl)oxy)phenyl)amino)pyrido[3,2-d]pyrimidin-6-yl)allyl)acrylamide], the GI50 was less than 100 nM in the experiment on Ba/F3 HER2 A775insYVMA and greater than 5 µM in experiment [1].
As for `C=CC(=O)N(C)C(C)/C=C/c1ccc2ncnc(Nc3ccc(Oc4ccc5c(c4)ncn5C)c(C)c3)c2n1` (centres unmarked) [Example 50, (E)-N-methyl-N-(4-(4-((3-methyl-4-((1-methyl-1H-benzo[d]imidazol-5-yl)oxy)phenyl)amino)pyrido[3,2-d]pyrimidin-6-yl)but-3-en-2-yl)acrylamide], the GI50 in the experiment on Ba/F3 HER2 A775insYVMA was less than 100 nM; in experiment [1], 1 to 5 µM.
Regarding `C=CC(=O)N(C)[C@@H](C)/C=C/c1ccc2ncnc(Nc3ccc(Oc4ccc5c(c4)ncn5C)c(C)c3)c2n1` [Example 51, (S,E)-N-methyl-N-(4-(4-((3-methyl-4-((1-methyl-1H-benzo[d]imidazol-5-yl)oxy)phenyl)amino)pyrido[3,2-d]pyrimidin-6-yl)but-3-en-2-yl)acrylamide], the GI50 with Ba/F3 HER2 A775insYVMA is less than 100 nM; in experiment [1] it was 1 to 5 µM.
Taken in the same sequence, the figures for `C=CC(=O)N(C)[C@H](C)/C=C/c1ccc2ncnc(Nc3ccc(Oc4ccc5c(c4)ncn5C)c(C)c3)c2n1` [Example 52, (R,E)-N-methyl-N-(4-(4-((3-methyl-4-((1-methyl-1H-benzo[d]imidazol-5-yl)oxy)phenyl)amino)pyrido[3,2-d]pyrimidin-6-yl)but-3-en-2-yl)acrylamide] were less than 100 nM and 1 to 5 µM.
As for `C=CC(=O)N(C/C=C/c1ccc2ncnc(Nc3ccc(Oc4ccc5c(c4)ncn5C)c(C)c3)c2n1)C(C)(C)C` [Example 53, (E)-N-(tert-butyl)-N-(3-(4-((3-methyl-4-((1-methyl-1H-benzo[d]imidazol-5-yl)oxy)phenyl)amino)pyrido[3,2-d]pyrimidin-6-yl)allyl)acrylamide], the GI50 with Ba/F3 HER2 A775insYVMA was less than 100 nM; in experiment [1], 1 to 5 µM.
In the same order, the values of `C=CC(=O)N(C)C/C=C/c1ccc2ncnc(Nc3cc(C)c(Oc4ccc5c(c4)ncn5C)cc3OC)c2n1` [Example 54, (E)-N-(3-(4-((2-methoxy-5-methyl-4-((1-methyl-1H-benzo[d]imidazol-5-yl)oxy)phenyl)amino)pyrido[3,2-d]pyrimidin-6-yl)allyl)-N-methylacrylamide] are less than 100 nM and greater than 5 µM.
As for `C=CC(=O)N(C)C/C=C/c1ccc2ncnc(Nc3ccc(Oc4ccc5c(c4)ncn5C)c(F)c3)c2n1` [Example 55, (E)-N-(3-(4-((3-fluoro-4-((1-methyl-1H-benzo[d]imidazol-5-yl)oxy)phenyl)amino)pyrido[3,2-d]pyrimidin-6-yl)allyl)-N-methylacrylamide], the GI50 is less than 100 nM in the experiment on Ba/F3 HER2 A775insYVMA and greater than 5 µM in experiment [1].
